Data taken from PubChem BioAssay AID2060909 (Molecular Pharmacology Branch, DTP, NCI, 2025).
Values joined by “and” are separate entries in the source; they are usually repeats but may differ in a detail not shown here. Equal values may be shown once.

Tested on: 362531-283-R-J2-PDC complex spheroid viability
Test: Anticancer human tumor 362531-283-R-J2-PDC patient-derived colon adenocarcinoma cell line growth inhibition [RAS]
Conditions: for viability, T/C: stronger effect = lower value
Method in brief: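 Agents were tested in combination matrices in half-log decrements from a top concentration at or near clinical Cmax (10 microM if undetermined). Targets were multi-cell spheroids of tumour lines plus HUVEC and MSC stromal cells.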

[1] = curve of first compound, second compound 0.000949 µM
[2] = curve of first compound, second compound 0.003 µM
[3] = curve of first compound, second compound 0.00949 µM
[4] = curve of first compound, second compound 0.03 µM
[5] = curve of first compound, second compound 0.0949 µM
[6] = curve of first compound, second compound 0.3 µM
[7] = second compound 0.000949 µM, first compound 0.0316 µM
[8] = second compound 0.000949 µM, first compound 0.1 µM
[9] = second compound 0.000949 µM, first compound 0.316 µM
[10] = second compound 0.000949 µM, first compound 1 µM
[11] = second compound 0.000949 µM, first compound 3.16 µM
[12] = second compound 0.000949 µM, first compound 10 µM
[13] = second compound 0.003 µM, first compound 0.0316 µM
[14] = second compound 0.003 µM, first compound 0.1 µM
[15] = second compound 0.003 µM, first compound 0.316 µM
[16] = second compound 0.003 µM, first compound 1 µM
[17] = second compound 0.003 µM, first compound 3.16 µM
[18] = second compound 0.003 µM, first compound 10 µM
[19] = second compound 0.00949 µM, first compound 0.0316 µM
[20] = second compound 0.00949 µM, first compound 0.1 µM
[21] = second compound 0.00949 µM, first compound 0.316 µM
[22] = second compound 0.00949 µM, first compound 1 µM
[23] = second compound 0.00949 µM, first compound 3.16 µM
[24] = second compound 0.00949 µM, first compound 10 µM
[25] = second compound 0.03 µM, first compound 0.0316 µM
[26] = second compound 0.03 µM, first compound 0.1 µM
[27] = second compound 0.03 µM, first compound 0.316 µM
[28] = second compound 0.03 µM, first compound 1 µM
[29] = second compound 0.03 µM, first compound 3.16 µM
[30] = second compound 0.03 µM, first compound 10 µM
[31] = second compound 0.0949 µM, first compound 0.0316 µM
[32] = second compound 0.0949 µM, first compound 0.1 µM
[33] = second compound 0.0949 µM, first compound 0.316 µM
[34] = second compound 0.0949 µM, first compound 1 µM
[35] = second compound 0.0949 µM, first compound 3.16 µM
[36] = second compound 0.0949 µM, first compound 10 µM
[37] = second compound 0.3 µM, first compound 0.0316 µM
[38] = second compound 0.3 µM, first compound 0.1 µM
[39] = second compound 0.3 µM, first compound 0.316 µM
[40] = second compound 0.3 µM, first compound 1 µM
[41] = second compound 0.3 µM, first compound 3.16 µM
[42] = second compound 0.3 µM, first compound 10 µM
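Note: spheroids exposed to the agents for 7 days before readout.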
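Throughout, for viability, T/C: luminescence viability as percent of DMSO vehicle control wells.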

CCC(CC)c1cc(NC2CCC(N)C2)n2nccc2n1 (configuration not stated)
viability, T/C (compound 0.0316 µM): 106% [middle of 4 runs]
viability, T/C (compound 0.1 µM): 94% and 100% and 104% (2×)
viability, T/C (compound 0.316 µM): 101% [middle of 4 runs]
viability, T/C (compound 1 µM): 94.1% [middle of 4 runs]
viability, T/C (compound 3.16 µM): 74.8% [middle of 4 runs]
viability, T/C (compound 10 µM): 3.99% [middle of 4 runs]
IC50 (curve of compound): 4.62 µM [middle of 4 runs]

CCC(CC)c1cc(NC2CCC(N)C2)n2nccc2n1 (configuration not stated) + CCn1c(-c2cc(N3CCN(C)CC3)cnc2C(C)OC)c2c3cc(ccc31)-c1csc(n1)CC(NC(=O)C1CC1C)C(=O)N1CCCC(N1)C(=O)OCC(C)(C)C2
IC50 [1]: 4.55 µM
IC50 [2]: 4.56 µM
IC50 [3]: 4.58 µM
IC50 [4]: 4.8 µM
IC50 [5]: 4.69 µM
IC50 [6]: < 0.0316 µM
viability, T/C [7]: 94.5%
viability, T/C [8]: 116%
viability, T/C [9]: 99.3%
viability, T/C [10]: 101%
viability, T/C [11]: 71.2%
viability, T/C [12]: 4.02%
viability, T/C [13]: 103%
viability, T/C [14]: 108%
viability, T/C [15]: 96.6%
viability, T/C [16]: 98.4%
viability, T/C [17]: 71.4%
viability, T/C [18]: 3.89%
viability, T/C [19]: 102%
viability, T/C [20]: 141%
viability, T/C [21]: 97.5%
viability, T/C [22]: 94.7%
viability, T/C [23]: 76%
viability, T/C [24]: 3.54%
viability, T/C [25]: 101%
viability, T/C [26]: 103%
viability, T/C [27]: 89.8%
viability, T/C [28]: 99.4%
viability, T/C [29]: 76.1%
viability, T/C [30]: 3.95%
viability, T/C [31]: 90.2%
viability, T/C [32]: 86.8%
viability, T/C [33]: 81.2%
viability, T/C [34]: 85.6%
viability, T/C [35]: 74.1%
viability, T/C [36]: 3.61%
viability, T/C [37]: 47.8%
viability, T/C [38]: 51.8%
viability, T/C [39]: 45%
viability, T/C [40]: 27.9%
viability, T/C [41]: 4.3%
viability, T/C [42]: 3.52%

CC(C)NCC(C(=O)N1CCN(c2ncnc3c2C(C)CC3O)CC1)c1ccc(Cl)cc1 (configuration not stated) + CCn1c(-c2cccnc2C(C)OC)c2c3cc(ccc31)N1CCOC(CC(NC(=O)C(C(C)C)N(C)C(=O)C3(F)CCN(C(=O)C#CC(C)(C)N(C)C)CC3)C(=O)N3CCCC(N3)C(=O)OCC(C)(C)C2)C1
IC50 [1]: > 10 µM
IC50 [2]: > 10 µM
IC50 [3]: > 10 µM
IC50 [4]: > 10 µM
IC50 [5]: > 10 µM
IC50 [6]: > 10 µM
viability, T/C [7]: 97.8%
viability, T/C [8]: 106%
viability, T/C [9]: 91.4%
viability, T/C [10]: 94.4%
viability, T/C [11]: 101%
viability, T/C [12]: 93.5%
viability, T/C [13]: 103%
viability, T/C [14]: 105%
viability, T/C [15]: 94.4%
viability, T/C [16]: 92.9%
viability, T/C [17]: 94.1%
viability, T/C [18]: 101%
viability, T/C [19]: 92.9%
viability, T/C [20]: 100%
viability, T/C [21]: 95%
viability, T/C [22]: 98.8%
viability, T/C [23]: 98.3%
viability, T/C [24]: 99%
viability, T/C [25]: 104%
viability, T/C [26]: 87.4%
viability, T/C [27]: 96.7%
viability, T/C [28]: 86.2%
viability, T/C [29]: 97.3%
viability, T/C [30]: 100%
viability, T/C [31]: 92.2%
viability, T/C [32]: 91.1%
viability, T/C [33]: 103%
viability, T/C [34]: 88.1%
viability, T/C [35]: 94.9%
viability, T/C [36]: 94.3%
viability, T/C [37]: 90.8%
viability, T/C [38]: 94.1%
viability, T/C [39]: 97.8%
viability, T/C [40]: 91.9%
viability, T/C [41]: 98.9%
viability, T/C [42]: 92%

C[C@@H](NC(=O)c1ncnc(N)c1Cl)c1ncc(C(=O)Nc2cc(C(F)(F)F)c(Cl)cn2)s1
viability, T/C (compound 0.0316 µM): 97.4% [middle of 4 runs]
viability, T/C (compound 0.1 µM): 102% [middle of 4 runs]
viability, T/C (compound 1 µM): 95.7% [middle of 4 runs]
viability, T/C (compound 3.16 µM): 93.9% [middle of 4 runs]
viability, T/C (compound 10 µM): 75.5% [middle of 4 runs]
IC50 (curve of compound): > 10 µM
